Series [1] in a line: Solubility (physicochemical properties, Table 1). To be noted: in Methanol, Acetonitril, Chloroform und Benzol. The text has this:
(§1) Die physikalisch-chemisch sowie spektroskopischen Eigenschaften von Cillianon lassen sich wie folgt zusammenfassen: Tabelle 1

Series [2] is described as follows: Stability (physicochemical properties, Table 1).
Text: as §1

Series [3] concerns the target T1, humanen IL-4 Rezeptor (huIL-4R/Fc) (Homo sapiens, UniProt P24394).
T1 construct: die aus der extrazellulären Region von normalerweise membranständigen Rezeptoren bestehen
T1 sequence (P24394 26-232 limits assumed): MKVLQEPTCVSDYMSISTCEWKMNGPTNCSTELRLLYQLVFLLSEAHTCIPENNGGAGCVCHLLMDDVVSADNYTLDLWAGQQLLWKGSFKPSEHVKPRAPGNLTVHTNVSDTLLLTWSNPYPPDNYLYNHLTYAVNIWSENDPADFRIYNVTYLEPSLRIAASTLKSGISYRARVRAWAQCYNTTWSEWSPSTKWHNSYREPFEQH
Description: Cell-free huIL-4 binding assay (IL-4 receptor test, ELISA with receptor/Fc fusion protein and biotinylated ligand). To be noted: huIL-4R/Fc 500 ng/ml; biotinylated huIL-4 100 ng/ml; 1 h room temperature; PBSA with 5 % DMSO; Abbildung 3. An excerpt:
Aus der EP 488 170 A1 sind zellfreie Bindungsteste bekannt. Für ihre Durchführung werden rekombinante chimäre Proteine verwendet, die aus der extrazellulären Region von normalerweise membranständigen Rezeptoren bestehen, an deren Carboxyterminus die Fc-Region einer schweren Immunglobulinkette bestehend aus Hinge-, CH2- und CH3-Domäne fusioniert wurde. Diese sogenannten Rezeptor/Fc-Fusionsproteine können unter Erhalt der spezifischen Rezeptorbindungsaktivität an Festphasen gebunden werden, die beispielsweise mit monoklonalen Antikörpern gerichtet gegen den Fc-Teil vorbeschichtet wurden. Als Festphase wurden für dieses Beispiel ®Nunc Typ B ELISA-Platten verwendet. Rezeptor/Fc-Fusionsproteine gelöst in PBS enthaltend 10 mg/ml BSA (PBSA) wurden an diese vorbehandelten Platten gebunden (huIL-4R/Fc: 500 ng/ml; muIL-4R/Fc: 250 ng/ml; huIL-1R/Fc: 125 ng/ml; 1 h bei Raumtemperatur). Nach Waschen wurden die Peptide beziehungsweise die jeweiligen spezifischen unmarkierten Liganden (huIL-4R/Fc: huIL-4; muIL-4R/Fc: muIL-4; huIL-1R/Fc:huIL-1ra) in variierenden Konzentrationen und danach die spezifischen Liganden in biotinylierender Form in einer festen Konzentration zugegeben (100 ng/ml). Die Inkubation erfolgte 1 h bei Raumtemperatur in PBSA enthaltend 5 % DMSO. Nach Waschen erfolgte eine Inkubation mit Streptavidin/Peroxidase (Amersham, 1:2000 in PBSA) für 20 min bei Raumtemperatur. […]
Background: ELISA stands for enzyme-linked immunosorbent assay.

Data on one compound can be found in patent publication EP0742215A1, “Cillianon, antibiotic from penicillin spe., and chemical derivatives thereof, method for their preparation and application” (HOECHST AKTIENGESELLSCHAFT, priority 1995, dated 1996).

In the case of `Cc1cc(O)c2c3c(c(O)c4c(c13)OC(C)C4(C)C)C(=O)C(O)(O)C2=O` (centres unmarked) [Cillianon], the Löslichkeit result in series [1] is reported as “lösliche”. The Stabilität result in series [2] (im sauren Milieu) was “stabil”; in series [2] (in wässrigem Alkali), “unbeständig”; in series [2] (unter Lichteinwirkung) it was “unbeständig”. Also, the IC50 (commonly the concentration needed to halve the response being measured) in series [3] is 55.8 µM.
